Experimental data as given in the NIST ThermoML archive (doi:10.1021/je300945r).

F/C=C/C(F)(F)F [trans-1,3,3,3-tetrafluoropropene]
Details | mass density [kg/m3]
343.15 K, 9736 kPa, Liquid, Vibrating tube method | 1068.9
343.15 K, 10753 kPa, Liquid, Vibrating tube method | 1076.1
343.15 K, 11770 kPa, Liquid, Vibrating tube method | 1082.8
343.15 K, 12788 kPa, Liquid, Vibrating tube method | 1089.2
343.15 K, 15829 kPa, Liquid, Vibrating tube method | 1106.7
343.15 K, 17849 kPa, Liquid, Vibrating tube method | 1117.1
343.15 K, 18851 kPa, Liquid, Vibrating tube method | 1122
343.15 K, 19867 kPa, Liquid, Vibrating tube method | 1126.8
343.15 K, 20877 kPa, Liquid, Vibrating tube method | 1131.4
343.15 K, 21883 kPa, Liquid, Vibrating tube method | 1135.8
343.15 K, 22905 kPa, Liquid, Vibrating tube method | 1140.2
343.15 K, 23913 kPa, Liquid, Vibrating tube method | 1144.3
343.15 K, 24913 kPa, Liquid, Vibrating tube method | 1148.4
343.15 K, 25929 kPa, Liquid, Vibrating tube method | 1152.4
343.15 K, 26933 kPa, Liquid, Vibrating tube method | 1156.2
343.15 K, 27938 kPa, Liquid, Vibrating tube method | 1160
343.15 K, 28947 kPa, Liquid, Vibrating tube method | 1163.6
343.15 K, 29953 kPa, Liquid, Vibrating tube method | 1167.2
343.15 K, 30968 kPa, Liquid, Vibrating tube method | 1170.7
343.15 K, 31987 kPa, Liquid, Vibrating tube method | 1174.2
343.15 K, 32989 kPa, Liquid, Vibrating tube method | 1177.5
343.15 K, 33994 kPa, Liquid, Vibrating tube method | 1180.8
343.16 K, 13798 kPa, Liquid, Vibrating tube method | 1095.3
343.16 K, 14817 kPa, Liquid, Vibrating tube method | 1101.1
343.16 K, 16838 kPa, Liquid, Vibrating tube method | 1112
352.95 K, 306.8 kPa, Gas, isochoric method | 12.346
352.96 K, 306.9 kPa, Gas, isochoric method | 12.346
352.99 K, 522.8 kPa, Gas, isochoric method | 21.739
353 K, 191.9 kPa, Gas, isochoric method | 7.634
353 K, 672 kPa, Gas, isochoric method | 28.571
353 K, 672.1 kPa, Gas, isochoric method | 28.571
353 K, 867.3 kPa, Gas, isochoric method | 38.462
353.01 K, 84.1 kPa, Gas, isochoric method | 3.3
353.01 K, 191.9 kPa, Gas, isochoric method | 7.634
353.01 K, 458.4 kPa, Gas, isochoric method | 19.231
353.01 K, 739.8 kPa, Gas, isochoric method | 32.258
353.02 K, 84.1 kPa, Gas, isochoric method | 3.3
353.02 K, 739.8 kPa, Gas, isochoric method | 32.258
353.03 K, 950.8 kPa, Gas, isochoric method | 43.478
353.14 K, 30961 kPa, Liquid, Vibrating tube method | 1149
353.15 K, 2236 kPa, Liquid, Vibrating tube method | 936.2
353.15 K, 9793 kPa, Liquid, Vibrating tube method | 1035.4
353.15 K, 12814 kPa, Liquid, Vibrating tube method | 1058.8
353.15 K, 15825 kPa, Liquid, Vibrating tube method | 1078.4
353.15 K, 16834 kPa, Liquid, Vibrating tube method | 1084.4
353.15 K, 18850 kPa, Liquid, Vibrating tube method | 1095.7
353.15 K, 19865 kPa, Liquid, Vibrating tube method | 1101
353.15 K, 21883 kPa, Liquid, Vibrating tube method | 1111
353.15 K, 22889 kPa, Liquid, Vibrating tube method | 1115.7
353.15 K, 24907 kPa, Liquid, Vibrating tube method | 1124.7
353.15 K, 25928 kPa, Liquid, Vibrating tube method | 1129.2
353.15 K, 26934 kPa, Liquid, Vibrating tube method | 1133.3
353.15 K, 27950 kPa, Liquid, Vibrating tube method | 1137.5
353.15 K, 28953 kPa, Liquid, Vibrating tube method | 1141.4
353.15 K, 29957 kPa, Liquid, Vibrating tube method | 1145.2
353.15 K, 31977 kPa, Liquid, Vibrating tube method | 1152.7
353.15 K, 32983 kPa, Liquid, Vibrating tube method | 1156.3
353.15 K, 33998 kPa, Liquid, Vibrating tube method | 1159.9
353.16 K, 2681 kPa, Liquid, Vibrating tube method | 945.9
353.16 K, 3704 kPa, Liquid, Vibrating tube method | 964.9
353.16 K, 4723 kPa, Liquid, Vibrating tube method | 980.5
353.16 K, 5740 kPa, Liquid, Vibrating tube method | 994
353.16 K, 6749 kPa, Liquid, Vibrating tube method | 1005.9
353.16 K, 7775 kPa, Liquid, Vibrating tube method | 1016.7
353.16 K, 8789 kPa, Liquid, Vibrating tube method | 1026.5
353.16 K, 10794 kPa, Liquid, Vibrating tube method | 1043.6
353.16 K, 11799 kPa, Liquid, Vibrating tube method | 1051.4
353.16 K, 13815 kPa, Liquid, Vibrating tube method | 1065.7
353.16 K, 14816 kPa, Liquid, Vibrating tube method | 1072.2
353.16 K, 17837 kPa, Liquid, Vibrating tube method | 1090.2
353.16 K, 20878 kPa, Liquid, Vibrating tube method | 1106.1
353.16 K, 23896 kPa, Liquid, Vibrating tube method | 1120.3
362.94 K, 86.6 kPa, Gas, isochoric method | 3.3
362.94 K, 316.2 kPa, Gas, isochoric method | 12.346
362.94 K, 316.3 kPa, Gas, isochoric method | 12.346
362.95 K, 473.2 kPa, Gas, isochoric method | 18.868
362.96 K, 197.6 kPa, Gas, isochoric method | 7.634
362.96 K, 473.2 kPa, Gas, isochoric method | 18.868
362.96 K, 540 kPa, Gas, isochoric method | 21.739
362.96 K, 695.3 kPa, Gas, isochoric method | 28.571
362.97 K, 899.7 kPa, Gas, isochoric method | 38.462
362.97 K, 987.6 kPa, Gas, isochoric method | 43.478
362.98 K, 766.3 kPa, Gas, isochoric method | 32.258
362.98 K, 987.6 kPa, Gas, isochoric method | 43.478
372.89 K, 557 kPa, Gas, isochoric method | 21.739
372.9 K, 89.1 kPa, Gas, isochoric method | 3.3
372.9 K, 325.6 kPa, Gas, isochoric method | 12.346
372.9 K, 557 kPa, Gas, isochoric method | 21.739
372.91 K, 203.3 kPa, Gas, isochoric method | 7.634
372.92 K, 792.3 kPa, Gas, isochoric method | 32.258
372.93 K, 488 kPa, Gas, isochoric method | 18.868
372.95 K, 1023.8 kPa, Gas, isochoric method | 43.478
372.95 K, 1023.9 kPa, Gas, isochoric method | 43.478
372.96 K, 931.7 kPa, Gas, isochoric method | 38.462
372.97 K, 718.5 kPa, Gas, isochoric method | 28.571
372.97 K, 718.6 kPa, Gas, isochoric method | 28.571
